Laboratory results taken from ChEMBL document CHEMBL1201862, “PubChem BioAssay data set” (2004).
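Protocol summary: plate cells (96-well), add compound at 5 concentrations, incubate 48 h, interpolate endpoints linearly. Here, GI50 denotes the concentration required for 50% inhibition of growth.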 Activity calls are given as the source filed them. Cut-off read from the data, not from the text of the source: active = GI50 up to about 1.1 µM and inactive = higher.

Legend:
Experiment in all cases: inhibition of tumour cell growth, NCI panel, 48 h
SW-620 = system: SW-620
SN12C = system: SN12C
SF-268 = system: SF-268
OVCAR-4 = system: OVCAR-4
SF-295 = system: SF-295
SK-OV-3 = system: SK-OV-3
CAKI-1 = system: CAKI-1
HOP-92 = system: HOP-92
SNB-75 = system: SNB-75
NCI-H226 = system: NCI-H226
HOP-62 = system: HOP-62
MOLT-4 = system: MOLT-4
TK-10 = system: TK-10
SR = system: SR
RXF 393 = system: RXF 393
OVCAR-3 = system: OVCAR-3
PC-3 = system: PC-3
HL-60 = system: HL-60
HCC 2998 = system: HCC 2998
ACHN = system: ACHN

| SMILES | GI50 (SW-620) | GI50 (SN12C) | GI50 (SF-268) | GI50 (OVCAR-4) | GI50 (SF-295) | GI50 (SK-OV-3) | GI50 (CAKI-1) | GI50 (HOP-92) | GI50 (SNB-75) | GI50 (NCI-H226) | GI50 (HOP-62) | GI50 (MOLT-4) | GI50 (TK-10) | GI50 (SR) | GI50 (RXF 393) | GI50 (OVCAR-3) | GI50 (PC-3) | GI50 (HL-60) | GI50 (HCC 2998) | GI50 (ACHN) |
| --- | --- | --- | --- | --- | --- | --- | --- | --- | --- | --- | --- | --- | --- | --- | --- | --- | --- | --- | --- | --- |
| COc1cccc2c1C(=O)c1c(O)c3c(c(O)c1C2=O)CC(O)(C(=O)CO)CC3OC1CC(N2CCOCC2C#N)C(O)C(C)O1 (stereo not given) | < 0.1 nM (active) | < 0.1 nM (active) | > 10 nM (active) | > 10 nM (active) | < 0.1 nM (active) | > 10 nM (active) | < 0.1 nM (active) | < 0.1 nM (active) | > 10 nM (active) | < 0.1 nM (active) | < 0.1 nM (active) | < 0.1 nM (active) | < 0.1 nM (active) | < 0.1 nM (active) | > 10 nM (active) | < 0.1 nM (active) | < 0.1 nM (active) | < 0.1 nM (active) | < 0.1 nM (active) | < 0.1 nM (active) |
| CN(C)c1ccc(/C=N/Nc2nc3ccccc3c(=O)n2-c2ccccc2)cc1 | > 100000 nM (inactive) | > 100000 nM (inactive) | 43500 nM (inactive) | 15900 nM (inactive) | 93100 nM (inactive) | 72300 nM (inactive) | > 100000 nM (inactive) | 31000 nM (inactive) | 5750 nM (inactive) | > 100000 nM (inactive) | 33300 nM (inactive) | > 100000 nM (inactive) | > 100000 nM (inactive) | > 100000 nM (inactive) | 50800 nM (inactive) | 27000 nM (inactive) | 55100 nM (inactive) | > 100000 nM (inactive) | > 100000 nM (inactive) | 67300 nM (inactive) |
